Data taken from ChEMBL document CHEMBL6103571, “Design, synthesis, and evaluation of carboxylic acid-substituted celecoxib isosteres as potential anti-inflammatory agents” (Eur J Med Chem, 2025).
Blank lines part the entries; values can stand above or below the compound they belong to. The source made the active and inactive calls. No cut-off for these calls is given here.

Assays:
RAW264.7 [1] = experiment: Anti-inflammatory activity against LPS-induced mouse RAW264.7 cells assessed as inhibition of NO production at 20 uM preincubated for 1 hrs followed by LPS addition and measured after 24 hrs by Griess reagent-based microplate reader analysis relative to control; type: functional; conditions: time 25 hrs
[2] = Cytotoxicity against mouse RAW264.7 cells incubated for 24 hrs by MTT assay; type: toxicity, cell-based
[3] = Toxicity in male Sprague-Dawley rat assessed as ulcer score at 100 mg/kg, po administrated for 3 days and measured after 2 hrs post last dose; type: organism-based; conditions: in vivo, 74 h
Mus musculus [4] = experiment: Anti-inflammatory activity in TPA-induced male Kunming mouse model of ear edema assessed as reduction in ear thickness at 1.0 mg, TOP pre-administered via ear for 30 mins followed by TPA addition and measured after 6 hrs; type: functional, organism-based; conditions: time 6.5 hrs
Mus musculus [5] = experiment: Anti-inflammatory activity in TPA-induced male Kunming mouse model of ear edema assessed as reduction in ear erythema at 1.0 mg, TOP pre-administered via ear for 30 mins followed by TPA addition and measured after 6 hrs; type: functional, organism-based; conditions: time 6.5 hrs
[6] = Toxicity in Sprague-Dawley rat assessed as ulcer index at 100 mg/kg, po administrated for 3 days and measured after 2 hrs post last dose; type: organism-based; conditions: in vivo, 74 h
Mus musculus [7] = experiment: Anti-inflammatory activity in TPA-induced male Kunming mouse model of ear edema assessed as reduction in ear weight at 1.0 mg, TOP pre-administered via ear for 30 mins followed by TPA addition and measured after 6 hrs; type: functional, organism-based; conditions: time 6.5 hrs
[8] = Toxicity in male Sprague-Dawley rat assessed as average number of ulcers at 100 mg/kg, po administrated for 3 days and measured after 2 hrs post last dose; type: organism-based; conditions: in vivo, 74 h
[9] = Toxicity in Sprague-Dawley rat assessed as ulcer index at 50 mg/kg, po administrated for 3 days and measured after 2 hrs; type: organism-based; conditions: in vivo, 74 h
[10] = Toxicity in Sprague-Dawley rat assessed as average number of ulcers at 50 mg/kg, po administrated for 3 days and measured after 2 hrs; type: organism-based; conditions: in vivo, 74 h
[11] = Toxicity in Sprague-Dawley rat assessed as ulcer score at 50 mg/kg, po administrated for 3 days and measured after 2 hrs; type: organism-based; conditions: in vivo, 74 h
Mus musculus [12] = experiment: Anti-inflammatory activity in TPA-induced male Kunming mouse model of ear edema assessed as reduction in ear erythema pre-administered topically via ear for 30 mins followed by TPA addition and measured after 6 hrs; type: functional, organism-based; conditions: dose 0.5-1 mg, route top, time 6.5 hrs
Mus musculus [13] = experiment: Anti-inflammatory activity against TPA-induced Kunming mouse ear edema model assessed as inhibition of PGE2 production in ear homogenate pre-administered topically via ear for 30 mins followed by TPA addition and measured after 6 hrs by ELISA; type: functional, organism-based; conditions: dose 0.5-1 mg, route top, time 6.5 hrs
RAW264.7 [14] = experiment: Anti-inflammatory activity in LPS-induced mouse RAW264.7 cells assessed as reduction in PGE2 production preincubated for 1 hrs followed by LPS addition for 24 hrs by ELISA; type: functional, cell-based; conditions: dose 12.5-50 µM, time 25.0 hrs
Mus musculus [15] = experiment: Anti-inflammatory activity in TPA-induced male Kunming mouse model of ear edema assessed as reduction in ear thickness at 0.5 to 1.0 mg, TOP pre-administered via ear for 30 mins followed by TPA addition and measured after 6 hrs; type: functional, organism-based; conditions: dose 0.5-1 mg, time 6.5 hrs
Mus musculus [16] = experiment: Anti-inflammatory activity in TPA-induced male Kunming mouse model of ear edema assessed as reduction in ear weight at 0.5 to 1.0 mg, TOP pre-administered via ear for 30 mins followed by TPA addition and measured after 6 hrs; type: functional, organism-based; conditions: dose 0.5-1 mg, time 6.5 hrs
[17] = target: T1, Prostaglandin G/H synthase 1 (Ovis aries, UniProt P05979); experiment: Inhibition of ovine COX-1 using arachidonic acid as substrate preincubated for 10 mins followed by substrate addition and measured after 2 mins by ELISA
T1 sequence (P05979 whole entry): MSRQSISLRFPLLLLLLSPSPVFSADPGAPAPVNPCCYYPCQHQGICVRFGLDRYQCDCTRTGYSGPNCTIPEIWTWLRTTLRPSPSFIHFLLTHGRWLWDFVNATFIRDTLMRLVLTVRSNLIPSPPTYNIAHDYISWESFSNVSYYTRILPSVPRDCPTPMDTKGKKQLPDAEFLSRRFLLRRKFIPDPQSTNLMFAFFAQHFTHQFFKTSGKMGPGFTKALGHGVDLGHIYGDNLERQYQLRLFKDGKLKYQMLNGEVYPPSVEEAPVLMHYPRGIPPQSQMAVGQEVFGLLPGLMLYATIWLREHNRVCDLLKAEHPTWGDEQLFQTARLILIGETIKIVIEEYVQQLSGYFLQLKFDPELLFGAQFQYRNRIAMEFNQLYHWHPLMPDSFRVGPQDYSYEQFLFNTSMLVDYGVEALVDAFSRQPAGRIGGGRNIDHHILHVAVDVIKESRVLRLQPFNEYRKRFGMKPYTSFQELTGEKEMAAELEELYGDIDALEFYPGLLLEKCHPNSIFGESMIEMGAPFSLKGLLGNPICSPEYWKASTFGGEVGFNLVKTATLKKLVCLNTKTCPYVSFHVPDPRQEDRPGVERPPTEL

[18] = target: T2, Prostaglandin G/H synthase 2 (Homo sapiens, UniProt P35354); experiment: Inhibition of recombinant human COX-2 using arachidonic acid as substrate preincubated for 10 mins followed by substrate addition and measured after 2 mins by ELISA
T2 sequence (P35354 whole entry): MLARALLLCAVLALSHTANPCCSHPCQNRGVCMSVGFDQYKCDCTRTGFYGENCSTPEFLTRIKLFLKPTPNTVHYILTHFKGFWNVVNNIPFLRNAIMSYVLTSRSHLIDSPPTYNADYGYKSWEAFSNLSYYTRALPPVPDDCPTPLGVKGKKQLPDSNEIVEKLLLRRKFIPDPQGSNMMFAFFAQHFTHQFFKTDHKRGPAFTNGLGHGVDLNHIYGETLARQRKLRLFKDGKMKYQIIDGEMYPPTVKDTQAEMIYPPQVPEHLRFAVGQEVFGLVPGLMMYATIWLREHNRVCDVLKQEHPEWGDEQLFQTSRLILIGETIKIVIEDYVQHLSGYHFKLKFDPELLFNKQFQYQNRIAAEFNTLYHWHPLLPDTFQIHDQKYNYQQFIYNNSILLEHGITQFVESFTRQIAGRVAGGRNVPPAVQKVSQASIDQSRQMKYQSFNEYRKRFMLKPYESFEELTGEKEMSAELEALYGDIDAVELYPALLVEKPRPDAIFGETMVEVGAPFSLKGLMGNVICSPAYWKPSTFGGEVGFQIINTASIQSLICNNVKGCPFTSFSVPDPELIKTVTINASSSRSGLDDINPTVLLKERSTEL

[19] = Selectivity index, ratio of IC50 for ovine COX-1 to IC50 for human COX-2
Mus musculus [20] = experiment: Anti-inflammatory activity against TPA-induced Kunming mouse ear edema model assessed as downregulation of COX-2 level in ear homogenate pre-administered topically via ear for 30 mins followed by TPA addition and measured after 6 hrs by Western blot analysis; type: functional, organism-based; conditions: dose 0.5-1 mg, route top, time 6.5 hrs
RAW264.7 [21] = experiment: Anti-inflammatory activity in LPS-induced mouse RAW264.7 cells assessed as downregulation of COX-2 expression at 12.5 to 50 uM preincubated for 1 hrs followed by LPS addition for 24 hrs by Western blotting analysis; type: functional, cell-based; conditions: dose 12.5-50 µM, time 25.0 hrs

SMILES: NS(=O)(=O)c1ccc(-c2nnc(SCC(=O)O)n2-c2ccc(Br)cc2)cc1
inhibition at 20 µM (RAW264.7 [1]): 21%
IC50 at 24 h [2]: > 100 µM

SMILES: NS(=O)(=O)c1ccc(-c2nnc(SCC(=O)O)n2-c2ccccc2[N+](=O)[O-])cc1
inhibition at 20 µM (RAW264.7 [1]): 13.8%
IC50 at 24 h [2]: > 100 µM

SMILES: NS(=O)(=O)c1ccc(-c2nnc(SCC(=O)O)n2-c2cccc(I)c2)cc1
inhibition at 20 µM (RAW264.7 [1]): 22.5%
IC50 at 24 h [2]: > 100 µM

SMILES: COc1cccc(-n2c(SCC(=O)O)nnc2-c2ccc(S(N)(=O)=O)cc2)c1
inhibition at 20 µM (RAW264.7 [1]): 15.6%
IC50 at 24 h [2]: > 100 µM

SMILES: Cc1ccc(-c2cc(C(F)(F)F)nn2-c2ccc(S(N)(=O)=O)cc2)cc1 [CELECOXIB]
Activity [3]: 1.5
Activity (Mus musculus [4]): Active
Activity (Mus musculus [5]): Active
UI [6]: 6.3
inhibition at 20 µM (RAW264.7 [1]): 38.1%
Activity (Mus musculus [7]): Active
Activity [8]: 0.8

SMILES: NS(=O)(=O)c1ccc(-c2nnc(SCC(=O)O)n2-c2ccccc2I)cc1
inhibition at 20 µM (RAW264.7 [1]): 17.9%
IC50 at 24 h [2]: > 100 µM

SMILES: NS(=O)(=O)c1ccc(-c2nnc(SCC(=O)O)n2-c2ccccc2F)cc1
inhibition at 20 µM (RAW264.7 [1]): 13.6%
IC50 at 24 h [2]: > 100 µM

SMILES: NS(=O)(=O)c1ccc(-c2nnc(SCC(=O)O)n2-c2ccccc2Cl)cc1
inhibition at 20 µM (RAW264.7 [1]): 20.9%
IC50 at 24 h [2]: > 100 µM

SMILES: NS(=O)(=O)c1ccc(-c2nnc(SCC(=O)O)n2-c2ccc(C(F)(F)F)cc2)cc1
inhibition at 20 µM (RAW264.7 [1]): 22.6%
IC50 at 24 h [2]: 62.2 µM

SMILES: NS(=O)(=O)c1ccc(-c2nnc(SCC(=O)O)n2-c2cccc(F)c2)cc1
inhibition at 20 µM (RAW264.7 [1]): 15.1%
IC50 at 24 h [2]: > 100 µM

SMILES: NS(=O)(=O)c1ccc(-c2nnc(SCC(=O)O)n2-c2cccc([N+](=O)[O-])c2)cc1
inhibition at 20 µM (RAW264.7 [1]): 13.2%
IC50 at 24 h [2]: > 100 µM

SMILES: COc1ccccc1-n1c(SCC(=O)O)nnc1-c1ccc(S(N)(=O)=O)cc1
inhibition at 20 µM (RAW264.7 [1]): 12.9%
IC50 at 24 h [2]: > 100 µM

SMILES: Cc1ccccc1-n1c(SCC(=O)O)nnc1-c1ccc(S(N)(=O)=O)cc1
inhibition at 20 µM (RAW264.7 [1]): 18.8%
IC50 at 24 h [2]: > 100 µM

SMILES: COc1ccc(-n2c(SCC(=O)O)nnc2-c2ccc(S(N)(=O)=O)cc2)cc1
inhibition at 20 µM (RAW264.7 [1]): 18.7%
IC50 at 24 h [2]: > 100 µM

SMILES: NS(=O)(=O)c1ccc(-c2nnc(SCC(=O)O)n2-c2ccc([N+](=O)[O-])cc2)cc1
inhibition at 20 µM (RAW264.7 [1]): 23.9%
IC50 at 24 h [2]: > 100 µM

SMILES: COc1ccc2c(c1)c(CC(=O)O)c(C)n2C(=O)c1ccc(Cl)cc1 [INDOMETHACIN]
UI [9]: 28.78
Activity [10]: 3.18
Activity [11]: 15.6

SMILES: Cc1cccc(-n2c(SCC(=O)O)nnc2-c2ccc(S(N)(=O)=O)cc2)c1
inhibition at 20 µM (RAW264.7 [1]): 17.7%
IC50 at 24 h [2]: 76.6 µM

SMILES: NS(=O)(=O)c1ccc(-c2nnc(SCC(=O)O)n2-c2ccc(Cl)cc2)cc1
inhibition at 20 µM (RAW264.7 [1]): 22.4%
IC50 at 24 h [2]: > 100 µM

SMILES: NS(=O)(=O)c1ccc(-c2nnc(SCC(=O)O)n2-c2ccccc2C(F)(F)F)cc1
inhibition at 20 µM (RAW264.7 [1]): 20.7%
IC50 at 24 h [2]: > 100 µM

SMILES: Cc1ccc(-n2c(SCC(=O)O)nnc2-c2ccc(S(N)(=O)=O)cc2)cc1
inhibition at 20 µM (RAW264.7 [1]): 22.3%
IC50 at 24 h [2]: 74.6 µM

SMILES: NS(=O)(=O)c1ccc(-c2nnc(SCC(=O)O)n2-c2cccc(Br)c2)cc1
inhibition at 20 µM (RAW264.7 [1]): 14.1%
IC50 at 24 h [2]: > 100 µM

SMILES: NS(=O)(=O)c1ccc(-c2nnc(SCC(=O)O)n2-c2cccc(C(F)(F)F)c2)cc1
inhibition at 20 µM (RAW264.7 [1]): 21.1%
IC50 at 24 h [2]: > 100 µM

SMILES: NS(=O)(=O)c1ccc(-c2nnc(SCC(=O)O)n2-c2cccc(Cl)c2)cc1
inhibition at 20 µM (RAW264.7 [1]): 19.1%
IC50 at 24 h [2]: > 100 µM

SMILES: NS(=O)(=O)c1ccc(-c2nnc(SCC(=O)O)n2-c2ccccc2Br)cc1
inhibition at 20 µM (RAW264.7 [1]): 14%
IC50 at 24 h [2]: > 100 µM

SMILES: NS(=O)(=O)c1ccc(-c2nnc(SCC(=O)O)n2-c2ccc(F)cc2)cc1
inhibition at 20 µM (RAW264.7 [1]): 15.4%
IC50 at 24 h [2]: > 100 µM

IC50 [17]: 16 µM
IC50 [18]: 0.054 µM
Ratio IC50 [19]: 296
SMILES: NS(=O)(=O)c1ccc(-c2nnc(SCC(=O)O)n2-c2ccc(I)cc2)cc1
Activity (Mus musculus [12]): Dose-dependent-effect
Activity (Mus musculus [13]): Dose-dependent-effect
Activity [3]: 0.6
Activity (RAW264.7 [14]): Dose-dependent-effect
Activity (Mus musculus [15]): Active
Activity (Mus musculus [16]): Active
UI [6]: 5.2
inhibition at 20 µM (RAW264.7 [1]): 30.8%
IC50 at 24 h [2]: > 100 µM
Activity [8]: 0.6
Activity (Mus musculus [20]): Dose-dependent-effect
Activity (RAW264.7 [21]): Active
